According to patent US20030138429A1, “Compositions and methods for inhibiting metastasis” (priority 2001, published 2003):
“Also recorded” adds a separate entry of the source.

Legend:
[1] = tested on: 1-LN human prostate tumor cells; test: Binding of 125I-labeled Pg 2 glycoforms to 1-LN cells; details: for BINDING +6-AHA: binding to surface of 1-LN cells in presence of 6-AHA; for BINDING +6-AHA / BINDING +L-lactose: Yes/No; for BINDING +L-lactose: binding to surface of 1-LN cells in presence of L-lactose; for Binding to 1-LN cells: in words; for Bound (Molecules × 10^5/cell): maximal binding, mean ± SD
Experimental: Ligand Binding Analysis—Cells were grown in tissue culture plates until the monolayers were confluent. Prior to use in binding assays, the cells were washed in HBSS. All binding assays were performed at 4° C. in RPMI 1640 containing 2% bovine serum ablumin (BSA). Increasing concentrations of ^125I-labeled Pg 2 glycoforms were incubated with cells for 60 min in 48-well or 96-well culture plates, respectively. Free ligand was separated from bound by aspirating the incubation mixture by and washing the cell monolayers rapidly three times with RPMI 1640 containing 2% BSA. The cells were then lyzed with 0.1 M NaOH, and bound radioactivity was determined in a Pharmacia LKB Biotechnology 1272-gamma counter. Molecules of ligand bound were calculated after substraction of non-specific binding measured in the presence of nonlabeled 100 μM Pg 2. Estimates for dissociation constant (Kd) values and maximal binding of Pg 2 glycoforms (Bmax) were determined by fitting data directly to the Langmuir isotherm using the statistical program SYStat® for Windows.
Binding of Single Pg 2 Glycoforms to 1-LN Human Prostate Tumor Cells—Binding of ^125I-labeled single Pg 2 glycoforms to 1-LN cells was determined as described under Experimental Procedures. Native Pg 2 has six glycoforms which differ in their sialic acid content.
In order to assess the binding mechanism of the individual Pg 2 glycoforms to 1-LN cells, we studied their activation by cells incubated with each glycoform in the presence of 6-aminohexanoic acid (6-AHA) and L-lactose. The antifibrinolytic amino acid 6-AHA prevents interaction of Pg L-lysine binding sites with several cell membrane-associated components. L-lactose is a sugar which intereferes with binding of Neu 5-AC (α2-3) or (α2-6) residues to sialic acid binding proteins and inhibits binding of Native Pg 2 to DPP IV on the surface of rheumatoid synovial fibroblasts.

1-LN cells [2] = test: MMP-9 activity in serum-free culture medium of 1-LN cells (quantitative gelatin zymography); format: cell-based, human; details: for Active MMP-9: 24 h; for MMP-9 EXPRESSION Secretion: Yes/No
Experimental: Gelatin Zymography—Protein samples were electrophoresed on gelatin-containing 0.75 mm thick 10% polyacrylamide gels in the presence of SDS under nonreducing conditions. After completion of the electrophoretic run, the gels were incubated with two changes of 2.5% Triton X-100 for 1 h, followed by incubation for 18 h at 37° C. in 0.1 M glycine-NaOH, pH 8.3, containing 1 mM CaCl2, and […], before staining with Coomassie Brilliant Blue R-250 to visualize the lysis bands.
MMP-9 Activity in Solution—MMP-9 activity was measured in tissue culture supernatants by quantitative zymography using as a standard MMP-9 purified by affinity chromatography on gelatin-Sepharose from 1-LN cell conditioned medium (10 liters). Conditioned medium (50 μl), from 1-LN cell monolayers in 48 well culture plates (1.7×10^6 cells/well) incubated with Pg 2 glycoforms and/or inhibitors of Pg binding or activation, were electrophoresed on gelatin-containing gels and the degree of lysis was quantified using a Gelman ACD-15 Automatic Computing Densitometer (Gelman Instrument Company, Ann Arbor, Mich.). Values were determined by integrating the density of the selected bands and expressed in units×mm^2. Each gel was scanned three times and the average value of the integrated density of the bands was used to determine levels of MMP-9 from calibration curves constructed with purified active MMP-9 electrophoresed under the same conditions. The statistical analysis of the data was performed on an IBM 433 DX/S computer using the program SYSTAT® for Windows 95. The statistical significance of differences between means was evaluated by Student's t-test. MMP-9 was positively identified in conditioned medium by electrophoretic separation in 10% SDS-polyacrylamide gels (SDS-PAGE), electroblot of the electrophoresed proteins to nitrocellulose membranes and reaction with an anti-MMP-9 mAb (1 μg/ml) followed by reaction with a secondary alkaline phosphatase conjugated anti-mouse IgG. Detection was performed by reaction with the alkaline phosphatase substrate 5-bromo-4-chloro-3-indolyl phosphate in the presence of nitroblue tetrazolium (1 mM each) in 10 mM Tris-HCl, pH 8.5.
Effect of Pg on the Expression of MMP-9 by 1-LN Cells—Cells were seeded into 48-well culture plates and grown in RPMI 1640 containing 10% fetal bovine serum. Confluent monolayers were then incubated for 24 h with quiescent culture medium containing RPMI 1640 and 0.5% fetal bovine serum. Each individual Pg 2 glycoform (0.1 μM) was added in triplicate to cell monolayers in 300 μl of serum-free RPMI 1640 and incubated for 24 h at 37° C. Culture medium was collected to measure secretion of MMP-9 as described under Experimental Procedures. Prior to analyses of the MMP-9 secreted into the medium by 1-LN cells in the presence of individual Pg 2 glycoforms, we purified MMP-9 from conditioned medium (5 liters) by the technique of Masure et al.. […] A similar analysis of the Mr˜95,000 protein yielded the sequence APRQRQ, corresponding to the amino-terminal sequence of proMMP-9. […] We then proceeded to analyze the MMP-9 secreted into the medium by 1-LN cells incubated with each individual Pg 2 glycoform in serum-free culture medium, using the purified MMP-9 as a standard for quantification by gelatin zymography. These analyses (FIG. 7A) show a major band of active protein with a Mr˜85,000. […] Samples of these conditioned media were also subjected to SDS-PAGE under reducing conditions, electroblotted to nitrocellulose membranes and then reacted with an anti-MMP-9 mAb (FIG. 7B). […] A 4-fold decrease in the production of MMP-9 by cells co-incubated with anti-DPP IV mAb 236.3 and Pg 2ε (p<0.001) (Table II) is clearly observed in the conditioned medium (Lane 6 on FIGS. 8A and 8B, respectively).

1-LN cells [3] = test: [Ca2+]i response of 1-LN cells (Fura-2/AM digital imaging microscopy); format: cell-based, human; details: for [Ca^2+]i Increase: Yes/No; for [Ca2+]i response after binding of glycoform: glycoform 0.1 μM, in words
Experimental: Measurement of Intracellular Calcium Levels—Cystolic free calcium [Ca^2+]i, was measured by Digital Imaging Microscopy (DIM) using the fluorescent indicator Fura-2/AM as previously described.
[Ca^2+]i Response to Pg 2 Glycoforms Binding on the Surface of 1-LN Cells—We measured changes in [Ca^2+]i after binding of each individual Pg 2 glycoform to the surface of 1-LN cells. […] Similarly, cells were incubated at 37° C. for 1 h with anti-u-PA or anti-p IgGs (100 μg/ml) which inhibit enzymatic activity prior to addition of the highly sialylated glycoforms (Pgs 2γ, 2δ, and 2ε).

[4] = 125I-labeled glycoform, 1-LN cell monolayers, serum-free RPMI 1640, mean ± SD
[5] = 125I-labeled glycoform, 1-LN cell monolayers
[6] = SFM + 6-AHA (100 nM) + glycoform 0.1 μM
[7] = SFM + L-lac (100 mM) + glycoform 0.1 μM
[8] = SFM + glycoform 0.1 μM, no additive, 37° C.
[9] = SFM + DPP IV-Ab (50 μg/ml) + glycoform 0.1 μM

Compound	Inhibition of binding of single Pg 2 glycoforms to 1-LN cells ([1]; 125I-labeled glycoform 0.1 μM, increasing concentrations of inhibitor)	Active MMP-9 (1-LN cells [2]; SFM + additive alone, no Pg 2 glycoform) [ng/mL]	Decrease in the production of MMP-9 (1-LN cells [2]; cells co-incubated with Pg 2ε, L-lactose 100 mM, anti-DPP IV mAb) [fold]	Kd [1, 4] [nM]	BINDING +6-AHA [1]	BINDING +L-lactose [1]	Binding to 1-LN cells [1]	Bound (Molecules × 10^5/cell) [1, 5] [Molecules × 10^5/cell]	[Ca^2+]i Increase (1-LN cells [3])	[Ca2+]i response after binding of glycoform (1-LN cells [3])	Active MMP-9 (1-LN cells [2]; [6]) [ng/mL]	Active MMP-9 (1-LN cells [2]; [7]) [ng/mL]	Active MMP-9 (1-LN cells [2]; [8]) [ng/mL]	MMP-9 EXPRESSION Secretion (1-LN cells [2])	Active MMP-9 (1-LN cells [2]; [9]) [ng/mL]	Stimulation of active MMP-9 secreted (1-LN cells [2]; compared to cells with other Pg 2 glycoforms or culture medium, p<0.001) [fold]	Kd (nM) [1, 4]
OC[C@@H]1O[C@H](O[C@@H]2[C@@H](O)[C@H](O)C(O)O[C@H]2CO)[C@@H](O)[C@H](O)[C@@H]1O (stereo partly drawn) [L-lactose, reference compound]	inhibited binding of Pgs 2γ, 2δ, and 2ε	0.15 ± 0.03	12														
Pg 2α: glycoform of human plasminogen type 2 purified from plasma; 1.3 mol sialic acid/mol Pg				24.3 ± 1.33	No	Yes	bind to 1-LN cells in a dose-dependent manner with high affinity	13.0 ± 4.6	No	did not produce any changes	0.59 ± 0.17	0.11 ± 0.02	0.59 ± 0.16	No			
Pg 2β: glycoform of human plasminogen type 2 purified from plasma; 2.2 mol sialic acid/mol Pg				7.4 ± 1.86	No	Yes	bind to 1-LN cells in a dose-dependent manner with high affinity	8.3 ± 1.3	No	did not produce any changes	0.5 ± 0.13	0.17 ± 0.04	0.59 ± 0.13	No			
Pg 2γ: glycoform of human plasminogen type 2 purified from plasma; 2.95 mol sialic acid/mol Pg				10.6 ± 1.43	Yes	No	bind to 1-LN cells in a dose-dependent manner with high affinity	8.6 ± 1.7	Yes	elicited a [Ca^2+]i response	0.63 ± 0.21	0.15 ± 0.03	0.60 ± 0.17	No	0.58 ± 0.12		
Pg 2δ: glycoform of human plasminogen type 2 purified from plasma; 5.77 mol sialic acid/mol Pg				13.6 ± 1.04	Yes	No	bind to 1-LN cells in a dose-dependent manner with high affinity	18.1 ± 2.4	Yes	elicited a [Ca^2+]i response	0.57 ± 0.14	0.18 ± 0.04	0.62 ± 0.18	No	0.56 ± 0.11		
Pg 2ε: glycoform of human plasminogen type 2 purified from plasma; 5.34 mol sialic acid/mol Pg				3.8 ± 0.83	Yes	No	bind to 1-LN cells in a dose-dependent manner with high affinity	9.4 ± 0.8	Yes	elicited a [Ca^2+]i response	1.82 ± 0.23	0.14 ± 0.05	1.80 ± 0.21	Yes	0.49 ± 0.14	3	
Pg 2φ: glycoform of human plasminogen type 2 purified from plasma; 13.65 mol sialic acid/mol Pg							does not bind; also recorded: No binding			No response	0.57 ± 0.11	0.11 ± 0.02	0.63 ± 0.14				No Binding
